The subject of the series is S1-M1-3.2 cells. The note with it: for Toxicity (>20%): compound alone, concentration that causes greater than 20% cell death of S1-M1-3.2 cells; for IC50: read-out: IC50 (μM), resensitizing S1-M1-3.2 cells to mitoxantrone, with 3.2 μM mitoxantrone, 50% cancer cell death; for Per Cent Survival with 3.2 μM mitoxantrone / Per Cent Survival Alone: S1-M1-3.2 cells; for Per Cent Survival Alone: 3 days. The method, then:
One of the first reported molecules with reversing activity was verapamil, a calcium channel blocker. […] Cells were plated into 96-well dishes (100 μl/well) in growth medium supplemented with 5% FBS. […] Reversal agents were tested from 0.1-80 μM (triplicate points per dose). In parallel wells, cells were grown in the presence of the reversal agent alone.
The Difference Score is the difference in the percentage of cells surviving when the drug was given alone minus the percentage of cells surviving when the drug was given along with the antitumor agent.
Cell survival was estimated using the Sulforhodamine (SRB) assay.

These results are taken from US20020169111A1, “Reversal of multidrug resistance in human colon carcinoma cells” (American Cyanamid Comany, priority 1998, published 2002).

Where two headings read alike, the source gives them in different places.

With `O=C1[C@@H]2Cc3c([nH]c4ccccc34)[C@H](CCCCCc3ccccc3)N2C(=O)[C@@H]2CCCN12` [Example 23b, (5aS,12S,14aS)-12-(5-phenylpentyl)-1,2,3,5a,6,11,12,14a-octahydro-5H,14H-pyrrolo[1″,2″:4′,5′]pyrazino[2′,1′:6,1]pyrido[3,4-b]indole-5,14-dione], the “Toxicity (>20%)” value is above 80 µM and the IC50 was 3 µM.
Taken in the same sequence, the figures for `CC(C)CC1c2[nH]c3ccccc3c2CC2C(=O)N3CCCCC3C(=O)N21` [Example 19b, (6aR,13S,15aS-13-isobutyl-1,2,3,4,6a,7,12,13,15a-nonahydro-6H,15H-pyrido[1″,2″:4′,5′]pyrazino[2′,1′:6,1]pyrido[3,4-b]indole-6H,15H-dione] were above 80.0 µM and 4 µM.
Taken in the same sequence, the figures for `CC(C)CC1c2[nH]c3ccccc3c2CC2C(=O)N3CCCCC3C(=O)N21` [Example 18a, (6aS,13R,15aS)-13-isobutyl-1,2,3,4,6a,7,12,13,15a-nonahydro-6H,15H-pyrido[1″,2″:4′,5′]pyrazino[2′,1′:6,1]pyrido[3,4-b]indole-6H,15H-dione] were 15.0 µM and 50 µM.
For `CC(C)CC1c2[nH]c3ccccc3c2CC2C(=O)N3CCCCC3C(=O)N21` [Example 20a, (6aS,13R,15aR)-13-isobutyl-1,2,3,4,6a,7,12,13,15a-nonahydro-6H,15H-pyrido[1″,2″:4′,5′]pyrazino[2′,1′:6,1]pyrido[3,4-b]indole-6H,15H-dione], in that order: 80.0 µM and 30 µM.
Turning to `CC(=O)NCCC[C@H]1c2[nH]c3ccccc3c2C[C@H]2C(=O)N3CCC[C@H]3C(=O)N21` [Example 30, N-{3-[(5aS,12S,14aS)-5,14-dioxo-2,3,5a,6,11,12,14,14a-octahydro-1H,5H-pyrrolo[1″,2″:4′,5′]pyrazino[2′,1′:6,1]pyrido[3,4-b]indol-12-yl]propyl}Acetamide], the “Toxicity (>20%)” value is above 80 µM and the IC50 was above 80 µM.
Taken in the same sequence, the figures for `CCCC(=O)NCCC[C@H]1c2[nH]c3ccccc3c2C[C@H]2C(=O)N3CCC[C@H]3C(=O)N21` [Example 31, N-{3-[(5aS,12S,14aS)-5,14-dioxo-2,3,5a,6,11,12,14,14a-octahydro-1H,5H-pyrrolo[1″,2″:4′,5′]pyrazino[2′,1′:6,1]pyrido[3,4-b]indol-12-yl]propyl}Butanamide] were above 80 µM and 65 µM.
Taken in the same sequence, the figures for `CC(C)C[C@H]1c2[nH]c3ccccc3c2C[C@@H]2C(=O)N3CCC[C@@H]3C(=O)N21` [Example 17b, (5aR,12S,14aR)-12-isobutyl-1,2,3,5a,6,11,12,14a-octahydro-5H,14H-pyrrolo[1″,2″:4′,5′]pyrazino[2′,1′:6,1]pyrido[3,4-b]indole-5,14-dione] were above 80.0 µM and 3.5 µM.
For `O=C1[C@@H]2Cc3c([nH]c4ccccc34)[C@@H](CCCCCc3ccccc3)N2C(=O)[C@@H]2CCCN12` [Example 23a, (5aS,12R,14aS)-12-(5-phenylpentyl)-1,2,3,5a,6,11,12,14a-octahydro-5H,14H-pyrrolo[1″,2″:4′,5′]pyrazino[2′,1′:6,1]pyrido[3,4-b]indole-5,14-dione], in that order: 7.5 µM and 0.3 µM.
For `O=C(NCCC[C@H]1c2[nH]c3ccccc3c2C[C@H]2C(=O)N3CCC[C@H]3C(=O)N21)OCc1ccccc1` [Example 24b, Benzyl 3-[(5aS,12S,14aS)-5,14-dioxo-2,3,5a,6,11,12,14,14a-octahydro-1H,5H-pyrrolo[1″,2″:4′,5′]pyrazino[2′,1′:6,1]pyrido[3,4-b]indol-12-yl]propylcarbamate], the “Toxicity (>20%)” value worked out at 20 µM and the IC50 is 2 µM.
Taken in the same sequence, the figures for `NCCC[C@@H]1c2[nH]c3ccccc3c2C[C@H]2C(=O)N3CCC[C@H]3C(=O)N12` [Example 29a, (5aS,12R,14aS)-12-(3-aminopropyl)-1,2,3,5a,6,11,12,14a-octahydro-5H,14H-pyrrolo[1″,2″:4′,5′]pyrazino[2′,1′:6,1]pyrido[3,4-b]indole-5,14-dione] were above 80 µM and 20 µM.
Taken in the same sequence, the figures for `CC(C)C[C@H]1c2[nH]c3ccccc3c2C[C@H]2C(=O)N3CCC[C@H]3C(=O)N21` [Example 14b, (5aS,12S,14aS)-12-isobutyl-1,2,3,5a,6,11,12,14a-octahydro-5H,14H-pyrrolo[1″,2″:4′,5′]pyrazino[2′,1′:6,1]pyrido[3,4-b]indole-5,14-dione] were 35.0 µM and 1 µM.
As for `CC(C)CC1c2[nH]c3ccccc3c2CC2C(=O)N3CCCCC3C(=O)N21` [Example 18b, (6aS,13S,15aS)-13-isobutyl-1,2,3,4,6a,7,12,13,15a-nonahydro-6H,15H-pyrido[1″,2″:4′,5′]pyrazino[2′,1′:6,1]pyrido[3,4-b]indole-6H,15H-dione], the “Toxicity (>20%)” value came to 25.0 µM and the IC50 came out at 1.5 µM.
For the compound `CC(C)C[C@H]1c2[nH]c3ccccc3c2C[C@@H]2C(=O)N3CCC[C@H]3C(=O)N21` [Example 15b, (5aR,12S,14aS)-12-isobutyl-1,2,3,5a,6,11,12,14a-octahydro-5H,14H-pyrrolo[1″,2″:4′,5′]pyrazino[2′,1′:6,1]pyrido[3,4-b]indole-5,14-dione], the “Toxicity (>20%)” value is above 80.0 µM and the IC50 worked out at 15 µM.
Turning to `CC(C)C[C@@H]1c2[nH]c3ccccc3c2C[C@H]2C(=O)N3CCC[C@H]3C(=O)N12` [Example 14a, (5aS,12R,14aS)-12-isobutyl-1,2,3,5a,6,11,12,14a-octahydro-5H,14H-pyrrolo[1″,2″:4′,5′]pyrazino[2′,1′:6,1]pyrido[3,4-b]indole-5,14-dione], the “Toxicity (>20%)” value is 80.0 µM and the 50% inhibitory concentration (IC50) is 80 µM.
For the compound `CC(C)CC1c2[nH]c3ccccc3c2CC2C(=O)N3CCCCC3C(=O)N21` [Example 21a, (6aR,13R,15aR)-13-isobutyl-1,2,3,4,6a,7,12,13,15a-nonahydro-6H,15H-pyrido[1″,2″:4′,5′]pyrazino[2′,1′:6,1]pyrido[3,4-b]indole-6H,15H-dione], the “Toxicity (>20%)” value was determined as 10.0 µM and the IC50 was determined as 10.5 µM.
For `COc1ccc(CCN(C)CCCC(C#N)(c2ccc(OC)c(OC)c2)C(C)C)cc1OC` (stereo not drawn) [Verapamil, reference compound], the “reversal activity in S1-M1-3.2 cells (in words)” value is recorded as “not reversed”. In addition, where the note is “drug 0.1 μM”, the “Per Cent Survival with 3.2 μM mitoxantrone” value is on record as 98 ± 0 Per Cent. Further, where the note is “drug 0.1 μM alone”, the “Per Cent Survival Alone” value is given as 100 ± 1 Per Cent. Moreover, for the setting “drug 0.5 μM”, the “Per Cent Survival with 3.2 μM mitoxantrone” value was 98 ± 1 Per Cent. The “Per Cent Survival Alone” value (drug 0.5 μM alone) is reported as 99 ± 1 Per Cent. Moreover, under “drug 1 μM”, the “Per Cent Survival with 3.2 μM mitoxantrone” value is 98 ± 1 Per Cent. For the setting “drug 1 μM alone”, the “Per Cent Survival Alone” value came to 97 ± 2 Per Cent. For the same compound, the “Per Cent Survival with 3.2 μM mitoxantrone” value (drug 5 μM) is recorded as 97 ± 0 Per Cent. In addition, the “Per Cent Survival Alone” value (drug 5 μM alone) came to 98 ± 5 Per Cent. For the setting “drug 10 μM”, the “Per Cent Survival with 3.2 μM mitoxantrone” value stood at 94 ± 0 Per Cent. Besides, the “Per Cent Survival Alone” value (drug 10 μM alone) is 103 ± 4 Per Cent. Also, the “Per Cent Survival with 3.2 μM mitoxantrone” value (drug 20 μM) is on record as 93 ± 2 Per Cent. In addition, the “Per Cent Survival Alone” value (drug 20 μM alone) was 99 ± 4 Per Cent. Also, where the note is “drug 40 μM”, the “Per Cent Survival with 3.2 μM mitoxantrone” value is 83 ± 3 Per Cent. For the same compound, the “Per Cent Survival Alone” value (drug 40 μM alone) stood at 93 ± 6 Per Cent. The “Per Cent Survival with 3.2 μM mitoxantrone” value (drug 80 μM) is reported as 58 ± 4 Per Cent. Moreover, the “Per Cent Survival Alone” value (drug 80 μM alone) was found to be 80 ± 24 Per Cent.
On to `CC(C)=C[C@H]1c2[nH]c3ccccc3c2C[C@H]2C(=O)N3CCC[C@H]3C(=O)N21` [Example 27], for which the “Toxicity (>20%)” value is above 80 µM and the IC50 was 2.5 µM.
Taken in the same sequence, the figures for `CCCCCCCCC[C@H]1c2[nH]c3ccccc3c2C[C@H]2C(=O)N3CCC[C@H]3C(=O)N21` [Example 28, (5aS,12S,14aS)-12-nonyl-1,2,3,5a,6,11,12,14a-octahydro-5H,14H-pyrrolo[1″,2″:4′,5′]pyrazino[2′,1′:6,1]pyrido[3,4-b]Indole-5,14-dione] were 7.0 µM and 0.25 µM.
For `O=C(O)CCC(=O)NCCC[C@H]1c2[nH]c3ccccc3c2C[C@H]2C(=O)N3CCC[C@H]3C(=O)N21` [Example 32, 4-({3-[(5aS,12S,14aS)-5,14-dioxo-2,3,5a,6,11,12,14,14a-octahydro-1H,5H-pyrrolo[1″,2″:4′,5′]pyrazino[2′,1′:6,1]pyrido[3,4-b]indol-12-yl]propyl}amino)-4-oxobutanoic acid], in that order: above 80 µM and above 80 µM.
Taken in the same sequence, the figures for `CC(C)C[C@@H]1c2[nH]c3ccccc3c2C[C@H]2C(=O)N3CCC[C@@H]3C(=O)N12` [Example 16a, (5aS,12R,14aR)-12-isobutyl-1,2,3,5a,6,11,12,14a-octahydro-5H,14H-pyrrolo[1″,2″:4′,5′]pyrazino[2′,1′:6,1]pyrido[3,4-b]indole-5,14-dione] were above 80.0 µM and above 80 µM.
Regarding `CC(C)C[C@H]1c2[nH]c3ccccc3c2C[C@H]2C(=O)N3CC[C@H]3C(=O)N21` [Example 22b, (4aS,11S,13aS)-11-isobutyl-1,4a,5,10,11,13a-hexahydro-4H-azeto[1″,2″:4′,5′]pyrazino[2′,1′:6,1]pyrido[3,4-b]indole-4,13(2H)-dione], the “Toxicity (>20%)” value is above 80.0 µM and the half-maximal inhibitory concentration (IC50) was found to be 2.5 µM.

The IC50 is the concentration that inhibits the measured activity by half.
